Reference: ChEMBL document CHEMBL3217736, “Novel aspects in structureactivity relationships of profiled 1-aza-9-oxafluorenes as inhibitors of Alzheimer's disease-relevant kinases cdk1, cdk5 and gsk3” (Medchemcomm, 2012)
Activity calls are given as the source filed them. The calls are words filed in the database; no cut-off is given here.

Columns and labels:
[1] = target: Cyclin-dependent kinase 1/cyclin B1 (Homo sapiens, UniProt P06493); test: (§1) Inhibition of human recombinant GST-fused CDK1/cyclin B expressed in insect Sf9 cells using RBER-CHKtide as substrate assessed as incorporation of 33Pi after 60 mins by microplate scintillation counting analysis
[2] = target: Glycogen synthase kinase-3 beta (Homo sapiens, UniProt P49841); test: Inhibition of human recombinant GST-fused GSK-3beta expressed in insect Sf9 cells using RBER-CHKtide as substrate assessed as incorporation of 33Pi after 60 mins by microplate scintillation counting analysis
[3] = target: Cyclin-dependent kinase 5/CDK5 activator 1 (Homo sapiens, UniProt Q00535); test: (§2) Inhibition of human recombinant GST-fused CDK5/P25 expressed in insect Sf9 cells using RBER-CHKtide as substrate assessed as incorporation of 33Pi after 60 mins by microplate scintillation counting analysis
[4] = target: Cyclin-dependent kinase 1/cyclin B1 (Homo sapiens) (UniProt P06493+P14635); test: as §1
[5] = target: Cyclin-dependent kinase 5/CDK5 activator 1 (Homo sapiens) (UniProt Q00535+Q15078); test: as §2
Cyclin-dependent kinase 5/CDK5 activator 1 (Homo sapiens), sequence (Q00535 whole entry): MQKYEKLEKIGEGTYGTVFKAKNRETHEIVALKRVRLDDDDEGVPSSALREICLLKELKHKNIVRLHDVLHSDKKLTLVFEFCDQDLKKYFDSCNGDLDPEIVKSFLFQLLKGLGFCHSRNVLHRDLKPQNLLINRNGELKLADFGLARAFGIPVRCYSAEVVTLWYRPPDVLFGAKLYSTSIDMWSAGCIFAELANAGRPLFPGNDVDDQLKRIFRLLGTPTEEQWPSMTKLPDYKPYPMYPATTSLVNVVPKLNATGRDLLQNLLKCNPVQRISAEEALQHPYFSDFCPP
Cyclin-dependent kinase 5/CDK5 activator 1 (Homo sapiens), sequence (Q15078 99-307 partner limits assumed): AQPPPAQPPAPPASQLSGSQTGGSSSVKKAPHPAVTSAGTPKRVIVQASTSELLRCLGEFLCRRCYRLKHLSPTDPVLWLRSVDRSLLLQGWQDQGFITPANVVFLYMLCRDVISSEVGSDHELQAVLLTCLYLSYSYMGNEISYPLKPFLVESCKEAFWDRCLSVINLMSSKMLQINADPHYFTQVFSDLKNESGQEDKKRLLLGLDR

Cyclin-dependent kinase 1/cyclin B1, sequence (P06493 whole entry, the tested form may be a part): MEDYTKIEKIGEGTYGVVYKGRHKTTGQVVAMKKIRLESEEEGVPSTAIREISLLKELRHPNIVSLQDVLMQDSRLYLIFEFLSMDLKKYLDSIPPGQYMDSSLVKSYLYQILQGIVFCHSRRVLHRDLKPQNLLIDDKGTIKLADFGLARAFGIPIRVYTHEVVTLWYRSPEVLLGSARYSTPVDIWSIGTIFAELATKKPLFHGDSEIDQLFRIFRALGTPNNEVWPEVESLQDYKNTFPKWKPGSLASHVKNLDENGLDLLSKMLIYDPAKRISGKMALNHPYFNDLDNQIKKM
Cyclin-dependent kinase 1/cyclin B1, sequence (P14635 whole entry, further chain, the tested form may be a part): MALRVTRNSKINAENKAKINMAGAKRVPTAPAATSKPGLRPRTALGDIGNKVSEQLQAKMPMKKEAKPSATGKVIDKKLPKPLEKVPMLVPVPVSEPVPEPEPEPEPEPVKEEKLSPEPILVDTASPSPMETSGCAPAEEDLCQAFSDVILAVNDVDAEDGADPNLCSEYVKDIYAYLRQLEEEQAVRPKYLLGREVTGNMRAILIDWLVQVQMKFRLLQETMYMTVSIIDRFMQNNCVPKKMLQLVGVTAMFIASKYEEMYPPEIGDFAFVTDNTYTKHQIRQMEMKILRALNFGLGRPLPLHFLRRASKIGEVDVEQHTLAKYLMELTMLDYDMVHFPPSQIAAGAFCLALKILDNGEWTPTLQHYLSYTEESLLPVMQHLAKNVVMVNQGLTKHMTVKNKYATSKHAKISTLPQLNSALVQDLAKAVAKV
Cyclin-dependent kinase 5/CDK5 activator 1, sequence (Q00535 whole entry, the tested form may be a part): as the sequence (Q00535 whole entry) above
Cyclin-dependent kinase 5/CDK5 activator 1, sequence (Q15078 whole entry, further chain, the tested form may be a part): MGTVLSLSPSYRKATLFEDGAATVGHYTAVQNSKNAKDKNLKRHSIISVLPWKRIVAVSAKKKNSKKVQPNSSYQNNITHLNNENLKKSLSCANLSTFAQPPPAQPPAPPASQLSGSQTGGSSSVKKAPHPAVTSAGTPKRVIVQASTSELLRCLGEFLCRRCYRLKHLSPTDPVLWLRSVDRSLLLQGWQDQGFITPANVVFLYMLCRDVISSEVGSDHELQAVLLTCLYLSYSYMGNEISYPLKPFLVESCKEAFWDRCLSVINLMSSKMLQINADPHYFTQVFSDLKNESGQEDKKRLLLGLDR
Cyclin-dependent kinase 1/cyclin B1 (Homo sapiens), sequence (P06493 whole entry, looked up): as the sequence (P06493 whole entry, the tested form may be a part) above
Cyclin-dependent kinase 1/cyclin B1 (Homo sapiens), sequence (P14635 whole entry, looked up): as the sequence (P14635 whole entry, further chain, the tested form may be a part) above

Compound | Ki [1] [µM] | Ki ([2]; read-out: Ki) [µM] | Ki [3] [µM] | Ki ([2]; sf9) | inhibition [4] | inhibition [2] | inhibition [5]
NCCNC(=O)c1cnc2oc3ccc(O)cc3c2c1-c1ccccc1 | 2 | 4.8 | 12.9 |  |  |  | 
COc1ccc2oc3ncc(OCc4ccccc4)c(-c4ccccc4)c3c2c1 |  |  | 25.1 |  |  |  | 
CNC(=O)c1cnc2oc3ccc(O)cc3c2c1-c1ccccc1 | > 1000 | 9 | > 1000 |  |  |  | 
COc1cc2oc3ncc(OCc4ccccc4)c(-c4ccccc4)c3c2cc1O | 1.9 |  | 13.8 | ND(Insoluble) |  |  | 
CCNC(=O)c1cnc2oc3ccc(O)cc3c2c1-c1ccccc1 | 2.1 |  | 16.7 | ND(Insoluble) |  |  | 
COc1cc2c(oc3ncc(OCc4ccccc4)c(-c4ccccc4)c32)c2ccccc12 | > 1000 | > 1000 | > 1000 |  |  |  | 
CCCNC(=O)c1cnc2oc3ccc(O)cc3c2c1-c1ccccc1 | 1.6 | 4.4 | 14.6 |  |  |  | 
COc1cc2oc3ncc(OCc4ccccc4)c(-c4ccccc4)c3c2c(OC)c1O | 0.2 | 5.4 | 13.6 |  |  |  | 
Oc1ccc2oc3ncc(OCc4ccccc4)c(-c4ccccc4)c3c2c1 |  |  |  |  | Active | Active | Active
